{"source": "patent US12439922B2", "about": "“Plant-based chemicals for Varroa mite control” (priority 2019, dated 2025)", "key": {"[1]": {"tested_on": "Varroa mites (Varroa destructor)", "experiment": "LD50 determination for mites (topical application, mortality at 24 h)", "type": "in vivo", "details": "for Mean LD50 / LD50 1 / LD50 2 / LD50 3: topical, mortality at 24 h; for Mean LD50: mean±se of three trials; for LD50 1: trial 1; for LD50 2: trial 2; for LD50 3: trial 3; for estimated LD50: max. dose 3200 ng/mite in three trials", "protocol": "Varroa mites (Varroa destructor) were collected from colonies at the Michigan State University apiary in East Lansing, MI. Mites were collected using the “sugar shake” method (Macedo and Ellis 2002). Approximately 350 bees were brushed from brood frames into a plastic basin and then poured into 473 ml wide-mouth Mason jars fitted with screen lids (3 mm×3 mm mesh). Approximately 8 g powdered sugar were sifted through the screen and the jar was shaken for 20 seconds and let to sit for 3 minutes. The mites then fell through the screen onto a piece of paper. Mites were collected, and the sugar dusts were washed off using moistened paintbrushes. Mites were kept in Petri-dishes with worker pupae and transported to the campus lab for LD50 determination.\nChemicals were dissolved in acetone serially diluted to obtain appropriate dosages. Each mite was topically applied with 0.2 μl of acetone containing the tested chemicals. A triplicate of 10 mites per dose were then housed in a Petri dish (diameter 3 cm, 34.5° C., RH 75%) with one white-eyed worker pupa as food. Mortality was assessed at 24 h. Mites were considered dead if no movement is observed in response to prodding with a metal probe.\n(§1) For both bee and mite mortality data, control mortality was used to correct the mortality of different doses of drugs (Abbott, 1925). A Log-Probit line was fitted for each treatment from which the LD50 values and 95% confidence intervals were calculated using the R statistical package (R Development Core Team 2008)."}, "bees": {"tested_on": "bees", "type": "in vivo, Apis mellifera", "protocol": "(§2) Picrotoxinin was dissolved in acetone (0.0064 gram picrotoxinin in 1.6 ml acetone=4 ug/ul) and then serially diluted to various doses. A selected amount of picrotoxinin was applied to each bee after CO2 anesthetization. Then, the bees were inoculated with Varroa mites (10 mites on 10 bees per dish). This procedure was employed to ensure that the mites were obtaining the chemical from the bees.\n(§3) The numbers of dead Varroa mites and dead bees were recorded after 2, 4 and 24 hours."}, "honey bees (foragers)": {"tested_on": "honey bees (foragers)", "experiment": "LD50 determination for bees (topical application to foragers, mortality observed for 2 days)", "type": "in vivo, Apis mellifera", "protocol": "Honey bees were obtained from the MSU apiary. Forty to fifty colonies were routinely kept during summer months for experiments. Foragers were used for LD50 determination because they are the most sensitive to toxins.\nForagers were collected when they were returning to the hive by an insect vacuum. Foragers were briefly anesthetized with carbon dioxide and individual forager was dosed with 4 μl of acetone containing various dosages of insecticide (at least 5 doses per drug) and a control with 4 μl of acetone only. Bees then were caged together (a triplicate of 10 bees per dose per colony) and their mortality observed for 2 days (acute toxicity) in an incubator (34.5° C., RH 75%).\nas §1"}, "[2]": {"experiment": "Highest amount that dissolves in acetone", "type": "physicochemical", "details": "in 4 μl acetone", "protocol": "Higher doses to honey bees were not tested because 2 mg was the highest amount one can dissolve with 4 μl acetone."}, "Varroa mites": {"tested_on": "Varroa mites", "experiment": "Picrotoxinin applied to bees inoculated with Varroa mites: dead mites", "type": "in vivo, Varroa destructor", "details": "for 24-hour dead mite / 4-hour dead mite / 2-hour dead mite: 10 mites on 10 bees per dish", "protocol": "as §2, §3"}}, "note": "Values joined by “and” are separate entries in the source; they are usually repeats but may differ in a detail not shown here. Equal values may be shown once. Read-outs that look alike come from different tables or passages of the source."}
{"molecule": "Ginkolide A", "values": [{"measurement": "Mean LD50", "setting": "[1]", "result": "535.52±450.90", "unit": "ng/mite"}, {"measurement": "LD50 1", "setting": "[1]", "result": 348.63, "unit": "ng/mite"}, {"measurement": "LD50 2", "setting": "[1]", "result": 1049.82, "unit": "ng/mite"}, {"measurement": "LD50 3", "setting": "[1]", "result": 208.10, "unit": "ng/mite"}]}
{"molecule": "Ginkolide C", "values": [{"measurement": "estimated LD50", "setting": "[1]", "result": ">3200", "unit": "ng/mite"}]}
{"molecule": "CC(C)(C)[C@]1(O)CC2OC(=O)CC23C(=O)OC2OC(=O)[C@H](O)C231", "note": "(stereo partly shown) [Bilobalide]", "values": [{"measurement": "estimated LD50", "setting": "[1]", "result": ">3200", "unit": "ng/mite"}]}
{"molecule": "CC1(C)C(C=C(Cl)Cl)C1C(=O)OC(C#N)c1ccc(F)c(Oc2ccccc2)c1", "note": "(stereo not shown) [Cyfluthrin, reference compound]", "values": [{"measurement": "Mean LD50", "setting": "[1]", "result": "0.63 ± 0.18", "unit": "ng/mite"}, {"measurement": "LD50 1", "setting": "[1]", "result": 0.46, "unit": "ng/mite"}, {"measurement": "LD50 2", "setting": "[1]", "result": 0.82, "unit": "ng/mite"}, {"measurement": "LD50 3", "setting": "[1]", "result": 0.60, "unit": "ng/mite"}]}
{"molecule": "C[C@@H]1C(=O)O[C@H]2[C@H](O)[C@@]34[C@H]5C[C@@H](C(C)(C)C)[C@]36[C@@H](OC(=O)[C@@H]6O)O[C@@]4(C(=O)O5)[C@@]12O", "note": "[Ginkolide B]", "values": [{"measurement": "estimated LD50", "setting": "[1]", "result": ">3200", "unit": "ng/mite"}]}
{"molecule": "C=C(C)[C@@H]1[C@H]2OC(=O)[C@@H]1[C@]1(O)C[C@H]3O[C@]34C(=O)O[C@H]2[C@]14C", "note": "[Picrotoxinin, picrotoxinin]", "values": [{"measurement": "24-hour dead bee", "setting": "bees; 0.005 ug/bee, 10 bees per dish", "result": 1}, {"measurement": "2-hour dead bee", "setting": "bees; 0.1 ug/bee, 10 bees per dish", "result": 1}, {"measurement": "4-hour dead bee", "setting": "bees; 0.1 ug/bee, 10 bees per dish", "result": 1}, {"measurement": "4-hour dead bee", "setting": "bees; 1 ug/bee, 10 bees per dish, # = dead perhaps due to leaked sugar syrup", "result": "1#"}, {"measurement": "24 hr dead bee", "setting": "bees; treatment 1 ug/ul", "result": 0}, {"measurement": "killing of honeybees at highest dose", "setting": "honey bees (foragers); 2,000,000 ng (2 mg) per bee in 4 μl acetone", "result": "failed to kill any honeybees"}, {"measurement": "LD50", "setting": "honey bees (foragers); topical to foragers, max dose 2000 ug/bee", "result": ">2000 (max dose ug/bee"}, {"measurement": "highest amount one can dissolve", "setting": "[2]", "result": 2, "unit": "mg"}, {"measurement": "24-hour dead mite", "setting": "Varroa mites; 0.000005 ug/bee", "result": 1}, {"measurement": "4-hour dead mite", "setting": "Varroa mites; 0.00005 ug/bee", "result": 1}, {"measurement": "2-hour dead mite", "setting": "Varroa mites; 0.0005 ug/bee", "result": 1}, {"measurement": "4-hour dead mite", "setting": "Varroa mites; 0.0005 ug/bee", "result": 3}, {"measurement": "24-hour dead mite", "setting": "Varroa mites; 0.0005 ug/bee", "result": "3 and 2"}, {"measurement": "2-hour dead mite", "setting": "Varroa mites; 0.005 ug/bee", "result": 1}, {"measurement": "4-hour dead mite", "setting": "Varroa mites; 0.005 ug/bee", "result": 1}, {"measurement": "4-hour dead mite", "setting": "Varroa mites; 0.05 ug/bee", "result": "2 and 1"}, {"measurement": "24-hour dead mite", "setting": "Varroa mites; 0.05 ug/bee", "result": "5 and 3"}, {"measurement": "2-hour dead mite", "setting": "Varroa mites; 0.1 ug/bee", "result": 2}, {"measurement": "4-hour dead mite", "setting": "Varroa mites; 0.1 ug/bee", "result": "5 and 4"}, {"measurement": "24-hour dead mite", "setting": "Varroa mites; 0.1 ug/bee", "result": "6 and 9"}, {"measurement": "2-hour dead mite", "setting": "Varroa mites; 1 ug/bee", "result": "2 and 4"}, {"measurement": "4-hour dead mite", "setting": "Varroa mites; 1 ug/bee", "result": "4 and 5"}, {"measurement": "24-hour dead mite", "setting": "Varroa mites; 1 ug/bee", "result": "7 and 10"}, {"measurement": "24 hr dead mite", "setting": "Varroa mites; treatment 1 ug/ul", "result": "9 and 10"}, {"measurement": "24 hr dead mite", "setting": "Varroa mites; treatment 4 ug/ul", "result": 10}, {"measurement": "LD50 for this particular trial (FIG. 1)", "setting": "[1]; dose response of FIG. 1", "result": 22.61, "unit": "ng/mite"}, {"measurement": "susceptibility of Varroa mites to toxicity compared to honey bees", "setting": "[1]; mite LD50 versus highest bee dose", "result": "at least 100,000 fold"}, {"measurement": "Mean LD50", "setting": "[1]", "result": "20.16 ± 2.00", "unit": "ng/mite"}, {"measurement": "Mean LD50", "setting": "[1]; listed as picrotoxinin", "result": "20.16±2.00", "unit": "ng/mite"}, {"measurement": "LD50 1", "setting": "[1]", "result": 20.82, "unit": "ng/mite"}, {"measurement": "LD50 2", "setting": "[1]", "result": 22.61, "unit": "ng/mite"}, {"measurement": "LD50 3", "setting": "[1]", "result": 17.05, "unit": "ng/mite"}]}
